From patent US6696081B2, “Carbohydrate based lipid compositions and supramolecular structures comprising same” (Duke University, priority 2000, dated 2004) come the findings set out here.

Format in all cases: physicochemical
A short description of series [1]: Modulated differential scanning calorimetry (MDSC) of hydrated lipid bilayers. The method, then:
The phase-transition temperatures (Tm) of the bilayers formed by DLRPC, DMRPC and DARPC were determined by modulated differential scanning calorimetry (MDSC). […] For DARPC, the similarity in Tm was not entirely unexpected since tail—tail interactions contribute more to the Tm as the tail length increases. […] At the phase-transition temperature, the bilayer transformed from the gel-liquid crystalline phase in glycerol based phospholipids such as DLPC and DMPC. This endothermic process was observed as two discreet events. A small pre-transition peak, corresponding to the conversion from a lamellar gel (Lβ) phase to rippled gel (Pβ) phase, occurred below a much larger sharp main transition peak corresponding to conversion of the Pβ phase to the liquid crystalline Lα phase. The temperature at which the pre-transition existed as well as the enthalpy of the transition both changed as a function of tail length in a linear pattern. This presence of two well-defined phase transitions was not observed for the carbohydrate-based lipids.
Thermal Analysis of DLRPC 1-2 mgs of lipid were hermetically sealed with […] water in an aluminum pan. The modulation was set to ±1.00° C. every 40 seconds and the pan was equilibrated at −15° C. The temperature was increased at 0.5° C./min to 70° C. where the temperature was held for 2 minutes. The temperature was then reduced to −10° C. and held at this temperature for 2 minutes. This heating-cooling cycle was repeated two more times before the sample was held isothermal at −10° C. for 20 minutes. Integrating under the heat flow peak curve of the main peak provides the enthalpy of the transition. TA Instruments Universal Analysis computer program (available from TA Instruments of New Castle, Del., United States of America) was used to analyze the data. DLRPC has a Tm of 15.75° C. and an enthalpy of 3.3 kcal/mol.
The same modulated differential scanning calorimetry method used on DLRPC was employed to obtain thermotropic data on DMRPC.
The same modulated differential scanning calorimetry method used on DLRPC was employed to obtain thermotropic data on DARPC.

The nature of series [2]: Cholesterol interactions: MDSC of lipid/cholesterol mixtures. The method, then: The enthalpy was zero at 50 mol % cholesterol for DMRPC. For the glycerol-based phospholipid, cholesterol packed in the bilayer membrane with its hydroxyl group at the same level as the acyl groups. In this structural arrangement, cholesterol primarily interacted with the tails and not the head group or backbone.
For DMRPC, a slight decrease in phase-transition temperature was observed. The phase-transition temperature decreased from ˜30° C. at 0 mol % cholesterol to ˜27° C. at 35 mol % cholesterol. […] The carbohydrate backbone of DMRPC likely altered the effective hydrophobic length of the bilayer area (this DMRPC is similar to longer tail systems). There was a slight destabilization of the bilayer membrane with the incorporation of cholesterol as indicated by the decrease in phase-transition temperature. […] X-ray data on 20 mol % cholesterol/DMRPC confirmed the Lc state.

Series [3] is described as follows: Carboxyfluorescein leakage assay of carbohydrosomes. Particulars: vesicles of 100% DMRPC (0% cholesterol). An excerpt:
The following procedure is adapted from Weinstein et al. (Weinstein, et al., Self-Quenching of Carboxyfluorescein Fluorescence: Uses in Studying Liposome Stability and Liposome-Cell Interaction; Weinstein, J. N.; et al., Ed.; CRC Press, Inc.: Boca Raton, Fla., United States of Amenica 1984; Vol. 3, pp 183-204.) and was successfully used in DMPC control experiments. Immediately before use, the carbohydrate-based lipid DMRPC, was passed through a C-18 SEP PAK™ column using a solvent system of 10% MeOH/CH3CN. Both the cholesterol and DMRPC were dissolved in chloroform and mixed. The mixtures were dried by rotoevaporation in a 100 mL round bottom flask before being thoroughly dried by high vacuum. […] The size of the liposomes was determined using dynamic light scattering. […] The filtered liposomes were diluted into osmotically equivalent 20 mM PBS buffer at pH 7.4 and the fluorescence intensity was measured over time. […]
As discussed herein above, one of the most wide-spread uses of liposomes is as drug delivery vehicles in warm-blooded vertebrates, including humans. […] In this Example, release of the self-quenching dye 5(6)-carboxyfluorescein (encapsulated in 5 mg/mL) was monitored over time by preparing carboxyfluorescein-containing carbohydrosomes using the high-pressure extrusion method. […]

Where “and” joins values, the source holds several entries; their conditions need not be identical. Equal values may be shown once.

“methyl-2,3-di-O-myristoyl-b-D-ribo-5-phosphocholine [DMRPC]”: the “increase of Tm over the glycerol analog” value in series [1] (DLRPC vs DLPC, DMRPC vs DMPC) is “approximately 6 °C”. Moreover, the enthalpy of transition in series [1] (lipid hydrated in water, MDSC) is 6.1 ± 1.0 kcal/mol and 6.1 kcal/mol; in series [2] (50 mol % cholesterol) it was “zero”. Moreover, the “phase-transition temperature (Tm) of the bilayer” value in series [1] (lipid hydrated in water, MDSC) is 29.6±0.3 °C and 29 °C and 29.6 °C. In addition, the phase-transition temperature was about 30 °C in series [2] (0 mol % cholesterol) and about 27 °C in series [2] (35 mol % cholesterol). Moreover, the “vesicle survival of SEPHADEX G-50 column separation” value in series [3] was “too fragile to survive”.
